Test results from article PMC11494653, “Teixobactin “Swapmers” with L Tail Stereochemistry Retain Antibiotic Activity” (The Journal of Organic Chemistry, 2024).
Positions of bridges follow the written chain, without caps; N, C: chain ends. Non-standard residues stand in square brackets, D forms with d. Residues, ends and D or L forms follow the SMILES beside them. Chains are numbered I, II in the order given. NMeF = CN[C@@H](Cc1ccccc1)C(=O)O

Assays:
Format in all cases: cell-based
[1] = tested on: Bacillus subtilis ATCC 6051; assay: microbe, parasite or virus in culture; details: ATCC 6051, 16 h
Description: (§1) We determined the MIC values of these teixobactin swapmer prodrugs against the Gram-positive bacteria Bacillus subtilis, Staphylococcus epidermidis, methicillin-susceptible Staphylococcus aureus (MSSA), and methicillin-resistant Staphylococcus aureus (MRSA) in a broth microdilution assay as described previously.[9],[10] We used the antibiotic vancomycin as a positive control and the Gram-negative bacterium Escherichia coli as a negative control. The MIC values for Lys10-teixobactin 1, Lys10-teixobactin prodrug 2, Arg10-teixobactin 6, and Arg10-teixobactin prodrug 7 are shown in Table 1 for comparison with the swapmer analogues.
(§2) We performed minimum inhibitory concentration (MIC) assays as previously described.[9] A concise procedure is detailed below.
(§3) Stock solutions of teixobactin analogues were prepared gravimetrically by dissolving an appropriate amount of peptide in 20 mg/mL sterile DMSO. The stock solutions were stored at −20 °C for subsequent experiments.
(§4) Bacillus subtilis (ATCC 6051), Staphylococcus epidermidis (ATCC 14990), methicillin-susceptible Staphylococcus aureus (MSSA) (ATCC 29213), and Escherichia coli (ATCC 10798) were cultured from glycerol stocks in Mueller-Hinton broth containing 0.002% polysorbate 80 overnight in a shaking incubator at 37 °C. Methicillin-resistant Staphylococcus aureus (MRSA) (ATCC 700698) was cultured from a glycerol stock in brain hearth infusion broth containing 0.002% polysorbate 80 overnight in a shaking incubator at 37 °C. After overnight incubation, each culture was diluted with the appropriate media (containing 0.002% polysorbate 80) to 1 × 10^6 colony-forming units (CFU)/mL as previously described.[12],[15],[16] Briefly, we have previously determined the CFU/mL for each bacterium at OD600 = 0.075 for 200 μL of bacterial culture in a 96-well plate. The OD600 of each overnight culture was determined, and then each culture was diluted to OD600 = 0.075. Cultures were further diluted to achieve 1 × 10^6 CFU/mL solutions.
(§5) Aliquots of the 20 mg/mL peptide stock solutions were diluted to make a 64 μg/mL solution in Mueller-Hinton broth containing 0.002% polysorbate 80 and a 64 μg/mL solution in brain heart infusion broth containing 0.002% polysorbate 80. The solutions were mixed by pipetting to ensure homogeneity. A 200-μL aliquot of a 64 μg/mL solution was transferred to a 96-well plate. 2-fold serial dilutions were made with media containing 0.002% polysorbate 80 across the 96-well plate to achieve a final volume of 100 μL in each well (initial concentrations ranging from 64 to 0.0625 μg/mL). A 100-μL aliquot of a 1 × 10^6 CFU/mL bacterial solution was added to each well in the series, resulting in final bacterial concentrations of 5 × 10^5 CFU/mL in each well. As 100 μL of bacteria were added to each well, the concentration of peptide was also diluted 2-fold (final concentrations ranging from 32 μg/mL to 0.03125 μg/mL). Each plate was covered with a lid and incubated at 37 °C for 16 h. The optical density measurements were measured at 600 nm using a 96-well UV–vis plate reader (MultiSkan GO, Thermo Scientific). The MIC values were taken as the lowest concentration that had no bacterial growth. MIC assays for each compound were performed in triplicate to ensure reproducibility.

[2] = tested on: Staphylococcus epidermidis ATCC 14990; assay: microbe, parasite or virus in culture; details: ATCC 14990, 16 h
Description: as §1, §2, §3, §4, §5

[3] = tested on: Staphylococcus aureus (MSSA) ATCC 29213; assay: microbe, parasite or virus in culture; details: ATCC 29213, 16 h
Description: as §1, §2, §3, §4, §5

[4] = tested on: Staphylococcus aureus (MRSA) ATCC 700698; assay: microbe, parasite or virus in culture; details: ATCC 700698, 16 h
Description: as §1, §2, §3, §4, §5

[5] = tested on: Escherichia coli ATCC 10798; assay: microbe, parasite or virus in culture; details: ATCC 10798, 16 h
Description: as §1, §2, §3, §4, §5

all bacteria tested = assay: MIC broth microdilution assay, summary over all bacteria; details: concentration range tested up to 32 μg/mL
Description: as §1, §2, §3
as §4, with “After overnight incubation, each culture was diluted with the appropriate media (containing 0.002% polysorbate 80) to 1 × 10^6 colony-forming units (CFU)/mL as previously described.[12],[15],[16]” left out, “Cultures were further diluted to achieve 1 × 10^6 CFU/mL solutions.” left out
Aliquots of the 20 mg/mL peptide stock solutions were diluted to make a 64 μg/mL solution in Mueller-Hinton broth containing 0.002% polysorbate 80 and a 64 μg/mL solution in brain heart infusion broth containing 0.002% polysorbate 80. […] The optical density measurements were measured at 600 nm using a 96-well UV–vis plate reader (MultiSkan GO, Thermo Scientific). […]

## CC[C@H](C)[C@H](NC(=O)[C@H](CCC(N)=O)NC(=O)[C@H](Cc1ccccc1)NC)C(=O)N[C@@H](CO)C(=O)N[C@H](C(=O)N[C@@H](CCC(N)=O)C(=O)N[C@H](C(=O)OC[C@H](N)C(=O)N[C@H]1C(=O)N[C@@H](C)C(=O)N[C@@H](CCCNC(=N)N)C(=O)N[C@@H]([C@@H](C)CC)C(=O)O[C@H]1C)[C@@H](C)CC)[C@@H](C)CC [compound 9, N-Me-Phe0,Gln1,Ile4,Gln5,[Ile6-O-Ser7],Arg10-teixobactin] (I: H-[NMeF]QISIQI / II: H-S[dT]ARI; ester I:C-II:1, II:2-II:C)
[1]
  MIC Bacillus subtilis ATCC 6051: >32 µg/mL
[2]
  MIC Staphylococcus epidermidis ATCC 14990: >32 µg/mL
[3]
  MIC Staphylococcus aureus (MSSA) ATCC 29213: >32 µg/mL
[4]
  MIC Staphylococcus aureus (MRSA) ATCC 700698: >32 µg/mL
[5]
  MIC Escherichia coli ATCC 10798: >32 µg/mL
All bacteria tested
  antibiotic activity in words against all bacteria tested: completely inactive
